Measured values taken from US9040261B2, “Compounds as L-cystine crystallization inhibitors and uses thereof” (NEW YORK UNIVERSITY, priority 2009, dated 2015).
Structures can show the parent of a compound that is named as a salt. Marks after values point to notes of the source that are not given here.

Tests used:
[1] = Bulk crystallization of L-cystine in the presence of additives (mass yield); conditions: for influence on L-cystine growth: polymers and proteins with proximal carboxylate and amine groups
Method: Alternately, the hexagonal crystals can be obtained by crystallization performed near neutral pH (Sa) The hexagonal form was crystallized from a supersaturated L-cystine solution prepared by adding 70 mg of L-cystine to 100 mL of deionized water (3 mM), and heating under reflux at 100° C. for 20 min with stirring to completely dissolve L-cystine. […] This concentration was used for bulk crystallization studies in the presence of additives so that a measurable amount of bulk crystals could be obtained in a reasonable time. The solution was then allowed to cool slowly with stirring for 75 min. 30 mL aliquots were transferred to separate glass containers, which were then sealed to prevent evaporation and exposure to airborne particulates and stored for 72 hours at room temperature without stirring. […] The crystals retrieved in this manner were used for AFM studies by mounting individual crystals according to the procedure described below.
Various proteins, poly-amino acids, and molecular mimics of L-cystine were examined as additives. The aforementioned procedure for hexagonal platelet crystallization was repeated. Following the 75 min cooling period, prior to any observable crystallization, the additive was added to the supersaturated L-cystine solution to the desired concentration. […] Crystallization without additive was performed in an identical manner for comparison using a control solution from the same batch. The mass yields of L-cystine crystals were obtained by dividing the mass of L-cystine crystals (collected from growth solution by filtration) by the mass of L-cystine added in the growth solution.
Additives chosen for these studies were various proteins, poly-amino acids, and molecular mimics of L-cystine (see Table 1). The above procedure for hexagonal platelet crystallization was repeated until completion of the 75 min cooling period, at which point 29.5 g of solution was transferred to a 100 mL beaker containing 0.5 g of separately prepared additive solution to yield net concentrations of 2 mg/L additive and 0.7 g/L L-cystine. Additive solutions were replaced with deionized water of equivalent volume for control measurements. […]
L-cystine bulk crystallization was investigated in the presence of various polymers, urinary constituents, fish antifreeze proteins (AFPs), and L-cystine derivatives (i.e. structural mimics of L-cystine), which were analyzed as possible growth inhibitors of hexagonal L-cystine. The potency of each additive was assessed by comparing the difference in crystal yield (Table 1), which is equal to the mass of crystals formed in the presence of 2 mg/L additive (isolated with […]) divided by the total mass of L-cystine (700 mg/L).

[2] = Crystal size and habit by optical microscopy and SEM after bulk crystallization with additive; conditions: for L-cystine crystal habit in the presence of additive: hexagonal platelets without additive
Method: Various proteins, poly-amino acids, and molecular mimics of L-cystine were examined as additives. The aforementioned procedure for hexagonal platelet crystallization was repeated. Following the 75 min cooling period, prior to any observable crystallization, the additive was added to the supersaturated L-cystine solution to the desired concentration. The container was sealed and stored for 72 hours at room temperature without stirring, after which the precipitate was collected by vacuum filtration (Whatman Grade 1 filters, >11 μm pores) and were air dried prior to analysis. Crystallization without additive was performed in an identical manner for comparison using a control solution from the same batch. The mass yields of L-cystine crystals were obtained by dividing the mass of L-cystine crystals (collected from growth solution by filtration) by the mass of L-cystine added in the growth solution. The crystals were isolated with 11 μm-pore filters, which were regarded as sufficiently small for reliable capture of the crystals (optical micrographs reveal that the size of crystals was always greater than 50 μm
An Orion 3 Star pH meter (Thermo Electron Corp.) with Orion 9157BNMD probe was used to measure the pH of L-cystine solutions. Crystal morphology was measured with a Leitz ERGOLUZ optical microscope and a Hitachi 3500 scanning electron microscopy. A thin coating of gold (2 nm) was sputtered on SEM samples and images were acquired at low voltage (2-5 kV) to minimize sample melting. ^1H NMR spectra were recorded using a Bruker AVANCE 400 spectrometer and were routinely run using broadband decoupling. Chemical shifts (δ), expressed in ppm, are referenced to the corresponding residual nuclei in deuterated solvent (D2O). Powder X-ray diffraction (XRD) patterns of isolated crystals were acquired with a Panalytical XPert PRO MPD using a Bragg-Brentano geometry with fixed slits at power settings of 45 kV and 40 mA. A CuKa radiation (0.154 nm) source was used with a 1 degree fixed divergence slit (10 mm beam mask) for incident X-rays and a 1 degree anti-scatter slit Ni filter ( 1/16 degree receiving slit) for diffracted X-rays.

[3] = AFM step velocity and hillock imaging with L-cystine diesters under continuous flow; conditions: 0.015 mM inhibitor, 2 mM L-cystine
Method: Atomic force microscopy was performed with a Digital Instruments (Santa Barbara, Calif.) Nanoscope Ma Multimode system. All measurements were performed in a cell designed to contain liquids for in situ imaging, including step velocity measurements. All measurements were performed in contact mode using Veeco NP_B Si3N4 tips on silicon nitride cantilevers with a spring constant of 0.12N/m (triangular, 196 μm length, 41 μm width). L-cystine crystals (hexagonal form) were transferred onto an AFM specimen disk coated with partially cured (1 hr) UV-curable optical cement (Type SK-9, EMS Acquisition Corp.) by gently pressing the disk against hexagonal platelets collected by filtration (Whatman Nuclepore membrane, 8 μm). The (001) faces of the hexagonal plates naturally aligned parallel with the specimen disk such that the velocity of the equivalent {100} steps could be measured readily by AFM. The partially cured polymer with the adhered crystals was cured completely by additional UV radiation (2 hrs) prior to analysis. The mounted L-cystine crystals were etched slightly by immersion in deionized water for 30 sec at 60° C. to remove amorphous deposits or impurities that may be present on the surface. Step velocities on the hexagonal L-cystine crystals were measured by AFM using a fluid cell containing an aqueous solution, supersaturated with L-cystine (2 mM), introduced to the cell via a syringe. Step velocities were determined by measuring the distance of the steps from a reference point, usually the dislocation core, in consecutive deflection images acquired at periodic intervals, ranging from 9-14 sec. Measurements were acquired under continuous flow of fresh solution in order to maintain constant supersaturation and additive concentration. […] The step velocities, which correspond to the crystal growth rates, were measured with and without inhibitor for each pair.

[4] = 2 mg/L additive, 0.7 g/L L-cystine (pH 6.8), no additive 80, approximate error ±8%
[5] = 10 mg/L L-cysteine methylester, 700 mg/L L-cystine

## O=C(O)CCSSCCC(=O)O [3,3′-Dithiodiproprionic acid, 3,3′-dithiodipropionic acid, reference compound]
[1]; [4]
  Yield (%) = (collected mass by filtration, >11 μm)/(total mass added) × 100%: 72%

## COC(=O)[C@@H](N)CSSC[C@H](N)C(=O)O [CME, L-Cystine Methyl Ester]
[1]; [4]
  Yield (%) = (collected mass by filtration, >11 μm)/(total mass added) × 100%: 92* %
[1]; bulk crystallization
  CME concentration needed for crystal growth inhibition similar to CDME: more than twice that of CDME
[2]
  needle volume less than hexagonal platelets: ~100 times
  L-cystine crystal habit in the presence of additive: tapered hexagonal crystals

## O=C(O)CC(O)(CC(=O)O)C(=O)O [Citrate, sodium citrate (dihydrate), reference compound]
[1]; pH 6.8
  Yield (%) = (collected mass by filtration, >11 μm)/(total mass added) × 100%: 74%

## CC(C)(SSC(C)(C)[C@@H](N)C(=O)O)[C@H](N)C(=O)O [D-penicillamine disulfide, reference compound]
[1]; [4]
  Yield (%) = (collected mass by filtration, >11 μm)/(total mass added) × 100%: 65%

## CCOC(=O)[C@@H](N)CSSC[C@H](N)C(=O)OCC [L-CDEE, Cystine Diethyl Ester]
[3]
  order of step roughening, corresponding to the trend in inhibition: L-CDME>L-CDEE>L-CDIE>L-CDTE

## CC(C)OC(=O)[C@@H](N)CSSC[C@H](N)C(=O)OC(C)C [L-CDIE, L-Cystine Di-Isopropyl Ester]
[3]
  order of step roughening, corresponding to the trend in inhibition: L-CDME>L-CDEE>L-CDIE>L-CDTE

## CC(C)(C)OC(=O)[C@@H](N)CSSC[C@H](N)C(=O)OC(C)(C)C [L-CDTE, Cystine Di-t-Butyl Ester]
[3]
  order of step roughening, corresponding to the trend in inhibition: L-CDME>L-CDEE>L-CDIE>L-CDTE

## COC(=O)[C@@H](N)CS.Cl [L-cysteine methyl ester, L-cysteine methyl ester hydrochloride, reference compound]
[1]; 10 mg/L additive, 0.7 g/L L-cystine, no additive 80±8%, hydrochloride
  Yield (%) = (collected mass by filtration, >11 μm)/(total mass added) × 100%: 32%
[2]; [5]
  needle length: < 50 μm
  needle width: < 5 μm
[2]
  L-cystine crystal habit in the presence of additive: needles

## N[C@@H](CS)C(=O)O [L-cysteine, reference compound]
[1]; 10 mg/L additive, 0.7 g/L L-cystine, no additive 80±8%
  Yield (%) = (collected mass by filtration, >11 μm)/(total mass added) × 100%: 91%
[1]; bulk crystallization, Table 1
  influence on mass yield: did not influence the yield
[2]
  L-cystine crystal habit in the presence of additive: Hexagonal L-cystine platelets

## CC(C)(C)SSC[C@H](N)C(=O)O [S-tert-butylmercapto-L-cystine, 5-tert-butylmercapto-L-cysteine, reference compound]
[1]; [4]
  Yield (%) = (collected mass by filtration, >11 μm)/(total mass added) × 100%: 45%

## Chondroitin sulfate
[1]; [4]
  Yield (%) = (collected mass by filtration, >11 μm)/(total mass added) × 100%: 64%

## Desialylated Tamm-Horsfall protein: native THP desialylated by treatment with neuraminidase (50% reduction of carbohydrate content)
[1]; [4]
  Yield (%) = (collected mass by filtration, >11 μm)/(total mass added) × 100%: 41%

## Osteopontin (bovine): Osteopontin, extracted and purified from bovine milk, contains 7 wt % Ca2+ ions
[1]; [4]
  Yield (%) = (collected mass by filtration, >11 μm)/(total mass added) × 100%: 52%
[1]; Table 1
  influence on L-cystine growth: negligible influence

## Poly-L-arginine [reference compound]
[1]; [4]
  Yield (%) = (collected mass by filtration, >11 μm)/(total mass added) × 100%: 34%

## Poly-L-aspartate [reference compound]
[1]; [4]
  Yield (%) = (collected mass by filtration, >11 μm)/(total mass added) × 100%: 44%

## Poly-L-glutamate [reference compound]
[1]; [4]
  Yield (%) = (collected mass by filtration, >11 μm)/(total mass added) × 100%: 56%
[1]; Table 1
  influence on L-cystine growth: negligible influence

## Poly-L-lysine [reference compound]
[1]; [4]
  Yield (%) = (collected mass by filtration, >11 μm)/(total mass added) × 100%: 64%
[1]; Table 1
  influence on L-cystine growth: negligible influence

## Tamm-Horsfall protein: Tamm-Horsfall protein obtained from a human sample with no history of kidney stone disease
[1]; [4]
  Yield (%) = (collected mass by filtration, >11 μm)/(total mass added) × 100%: 69%
[1]; Table 1
  influence on L-cystine growth: negligible influence

## Transferrin: apo-transferrin (human, >98%)
[1]; [4]
  Yield (%) = (collected mass by filtration, >11 μm)/(total mass added) × 100%: 56%
